Experimental data published in US4732983A, “Pyschotropic polycyclic imides” (American Home Products Corporation, priority 1987, dated 1988).
Like-named read-outs stand apart in the source and are kept apart here.

Experiments:
rats = assay: Conditioned avoidance, discrete trial (lever press substituted for shelf-jump), Avoidance Block; format: in vivo, rat; conditions: for Conditioned Avoidance Discrete Trial AB50 (Avoidance Block): p.o.; for ED50: Rattus norvegicus, po, read-out: Conditioned Avoidance Discrete Trial AB50 (Avoidance Block)
[1] = system: CF-1 mice (Charles River); assay: Antagonism of apomorphine-induced stereotyped behavior and climbing; format: in vivo, mouse; conditions: for Apomorphine Antagonism ED50, climbing / Apomorphine Antagonism ED50, stereotypy: p.o.; for Apomorphine Antagonism ED50, climbing / Apomorphine Antagonism ED50, stereotypy / ED50: apomorphine 1 mg/kg s.c.; for ratio of the ED50 for stereotyped behavior to the ED50 for climbing: apomorphine-induced, standard antipsychotic drugs; for ED50: Mus musculus, po
Experimental: Readings are repeated every five minutes during a thirty minute test session. […] The ratio of the ED50 for stereotyped behavior to the ED50 for climbing is calculated.

[2] = system: male CD rats (Charles River); assay: Conditioned avoidance, shelf-jump response; format: in vivo, rat; conditions: 40 mg/kg i.p., single dose
Experimental: The rat can avoid the electric shock by jumping to an exposed shelf (shelf-jump response). A response during the initial warning tone is considered an avoidance response, while a response during shock delivery is considered as escape response. […] The compounds of this invention were tested at a single dose (40 mg./kg. i.p.) in this procedure and were rated relative to their inhibition of conditioned avoidance responding.

D-2 dopamine receptor = molecular target: T1, D-2 dopamine receptor (Rattus norvegicus, UniProt P61169); assay: [3H]spiroperidol binding inhibition, homogenized limbic brain tissue
T1 construct: homogenized limbic brain tissue is incubated with; from tissue; host or cells: homogenized limbic brain tissue
T1 sequence (P61169 whole entry): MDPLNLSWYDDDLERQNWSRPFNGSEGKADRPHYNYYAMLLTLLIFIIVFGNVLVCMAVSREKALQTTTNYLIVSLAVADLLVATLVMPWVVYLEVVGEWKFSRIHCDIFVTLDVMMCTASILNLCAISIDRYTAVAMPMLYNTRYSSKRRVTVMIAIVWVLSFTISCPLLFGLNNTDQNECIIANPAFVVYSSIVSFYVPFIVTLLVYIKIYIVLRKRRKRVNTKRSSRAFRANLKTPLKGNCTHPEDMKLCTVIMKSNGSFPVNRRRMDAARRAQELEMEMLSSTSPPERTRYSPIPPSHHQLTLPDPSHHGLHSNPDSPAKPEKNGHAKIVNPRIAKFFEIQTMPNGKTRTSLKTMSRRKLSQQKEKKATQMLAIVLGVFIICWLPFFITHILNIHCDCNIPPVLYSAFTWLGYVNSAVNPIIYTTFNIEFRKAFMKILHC

[3] = molecular target: T2, 5-HT1A serotonin receptor (Rattus norvegicus, UniProt P19327); assay: Inhibition of [3H]8-OH DPAT binding
T2 construct: 44: 1685-1696, 1985; from tissue
T2 sequence (P19327 1-422): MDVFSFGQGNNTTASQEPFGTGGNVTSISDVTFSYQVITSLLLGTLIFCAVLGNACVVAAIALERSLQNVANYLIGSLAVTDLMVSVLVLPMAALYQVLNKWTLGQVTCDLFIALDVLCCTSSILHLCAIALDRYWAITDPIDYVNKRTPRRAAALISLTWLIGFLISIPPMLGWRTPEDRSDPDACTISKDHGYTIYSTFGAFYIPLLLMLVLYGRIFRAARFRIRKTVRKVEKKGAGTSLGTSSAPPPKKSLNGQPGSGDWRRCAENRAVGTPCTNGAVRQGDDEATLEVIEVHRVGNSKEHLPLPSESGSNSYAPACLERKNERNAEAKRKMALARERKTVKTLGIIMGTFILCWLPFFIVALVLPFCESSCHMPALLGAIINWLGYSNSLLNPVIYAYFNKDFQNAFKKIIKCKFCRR

[4] = read-out: Apomorphine Antagonism ED50, climbing

| inhibition at 1 µM (D-2 dopamine receptor) | Ki [3] | Molecule | Conditioned Avoidance Discrete Trial AB50 (Avoidance Block) (rats) | Apomorphine Antagonism ED50, climbing [1] | Apomorphine Antagonism ED50, stereotypy [1] | Conditioned Avoidance Shelf-Jump (inhibition of conditioned avoidance responding) [2] | further results |
| --- | --- | --- | --- | --- | --- | --- | --- |
| 51% | 16 nM | O=C1C2C3CC4C2C4C3C(=O)N1CCCCN1CCN(c2ncccn2)CC1 [Example 7, 2-[4-[4-(2-Pyrimidinyl)-1-piperazinyl]butyl]hexahydro-4,6,7-metheno-1H-2-pyridine-1,3-(2H)-dione] | weak | inactive | inactive | ~ 80% |  |
|  |  | CN(C)CCCN1c2ccccc2Sc2ccc(Cl)cc21 [chlorpromazine, reference compound] |  |  |  |  | ratio of the ED50 for stereotyped behavior to the ED50 for climbing [1]: 1.51 |
|  | 12.8 nM | O=C1C2C(C(=O)N1CCCCN1CCN(c3ncccn3)CC1)C1C3CC4C(C32)C41 (stereo not drawn) [Example 1, Endo-2-[4-[4-(2-pyrimidinyl)-1-piperazinyl]butyl]octahydro-4,5,7-metheno-1H-pentaleno[1,2-c]pyrrole-1,3(2H)-dione] |  |  | inactive | ~ 80% | ED50 (rats): 55.7 mg/kg; ED50 [1, 4]: 17 mg/kg; [3H] Spiroperidol Binding Inhibition, % at 1 μM (D-2 dopamine receptor; 1 µM): 76% |
|  |  | O=C(CCCN1CCC(O)(c2ccc(Cl)cc2)CC1)c1ccc(F)cc1 [haloperidol, reference compound] |  |  |  |  | ratio of the ED50 for stereotyped behavior to the ED50 for climbing [1]: 1.00 |
|  | 40 nM | O=C1C2C(C(=O)N1CCCCN1CCN(c3ncccn3)CC1)C1C3CC4C(C32)C41 (stereo not drawn) [Example 2, Exo-2-[4-[4-(2-pyrimidinyl)-1-piperazinyl]butyl]octahydro-4,5,7-metheno-1H-pentaleno[1,2-c]pyrrole-1,3(2H)-dione] | active | 15.61 mg/kg | inactive | > 20% | [3H] Spiroperidol Binding Inhibition, % at 1 μM (D-2 dopamine receptor; 1 µM): 0% |
|  |  | Exo-2-[4-[4-(6-chloro-2-pyrazinyl)-1-piperazinyl]butyl]octahydro-4,57-metheno-1H-pentaleno[1,2-c]pyrrole-1,3-(2H)-dione [Example 4] | 56.16 mg/kg | inactive | inactive | > 20% | [3H] Spiroperidol Binding Inhibition, % at 1 μM (D-2 dopamine receptor): 54%; Inhibition of [3H] 8-OH DPAT Binding, % at 1 μM ([3]; 1 μM): 76% |
|  |  | CSc1ccc2c(c1)N(CCC1CCCCN1C)c1ccccc1S2 (stereo not shown) [thioridazine, reference compound] |  |  |  |  | ratio of the ED50 for stereotyped behavior to the ED50 for climbing [1]: 1.83 |
| 25% | 94 nM | O=C1C2C(C(=O)N1CCCCN1CCN(c3cnccn3)CC1)C1C3CC4C(C32)C41 (stereo not drawn) [Example 5, Endo-2-[4-[4-(2-pyrazinyl)-1-piperazinyl]butyl]octahydro-4,5,7-metheno-1H-pentaleno[1,2-c]pyrrole-1,3-(2H)-dione] | inactive | inactive | inactive | ~ 80% |  |
|  |  | O=C1CC2(CCCC2)CC(=O)N1CCCCN1CCN(c2ncccn2)CC1 [buspirone, reference compound] |  |  |  |  | affinity for 5-HT1A serotonin receptor (in words) ([3]; displacement of [3H]8-OH DPAT): potent affinity |
| 44% | 41.9 nM | O=C1C2C(C(=O)N1CCCCN1CCN(c3cncc(Cl)n3)CC1)C1C3CC4C(C32)C41 (stereo not drawn) [Example 3, Endo-2-[4-[4-(6-chloro-2-pyrazinyl)-1-piperazinyl]butyl]octahydro-4,5,7-metheno-1H-pentaleno[1,2-c]pyrrole-1,3-(2H)-dione] |  |  | inactive | > 20% | ED50 (rats): 46.8 mg/kg; ED50 [1, 4]: 19 mg/kg |
| 29% | 51 nM | O=C1C2C3CC4C2C4C3C(=O)N1CCCCN1CCN(c2cncc(Cl)n2)CC1 [Example 6, 2-[4-[4-(6-Chloro-2-pyrazinyl)-1-piperazinyl]butyl]hexahydro-4,6,7-metheno-1H-2-pyridine-1,3-(2H)-dione] | active |  |  | ~ 80% | ED50 [1, 4]: 1.74 mg/kg; ED50 ([1]; read-out: Apomorphine Antagonism ED50, stereotypy): 40.5 mg/kg |
